Source: publication PMC7587962, “Evaluation of Cytotoxicity and α-Glucosidase Inhibitory Activity of Amide and Polyamino-Derivatives of Lupane Triterpenoids” (Molecules, 2020)
Where two headings read alike, the source gives them in different places.

Experiments:
[1] = system: CCRF-CEM; experiment: NCI-60 SRB screen: leukemia CCRF-CEM; format: cell-based; conditions: Homo sapiens, 48 h
[2] = system: K-562; experiment: NCI-60 SRB screen: leukemia K-562; format: cell-based, human; conditions: K-562
[3] = system: MOLT-4; experiment: NCI-60 SRB screen: leukemia MOLT-4; format: cell-based; conditions: Homo sapiens, 48 h, MOLT-4
[4] = system: RPMI-8226; experiment: NCI-60 SRB screen: leukemia RPMI-8226; format: cell-based; conditions: Homo sapiens, 48 h, RPMI-8226
[5] = system: EKVX; experiment: NCI-60 SRB screen: non-small cell lung cancer EKVX; format: cell-based, human
[6] = system: HOP-62; experiment: NCI-60 SRB screen: non-small cell lung cancer HOP-62; format: cell-based, human; conditions: HOP-62
[7] = system: HOP-92; experiment: NCI-60 SRB screen: non-small cell lung cancer HOP-92; format: cell-based, human; conditions: HOP-92
[8] = system: NCI-H226; experiment: NCI-60 SRB screen: non-small cell lung cancer NCI-H226; format: cell-based, human; conditions: NCI-H226
[9] = system: NCI-H23; experiment: NCI-60 SRB screen: non-small cell lung cancer NCI-H23; format: cell-based, human; conditions: NCI-H23
[10] = system: NCI-H522; experiment: NCI-60 SRB screen: non-small cell lung cancer NCI-H522; format: cell-based, human; conditions: NCI-H522
[11] = system: HCC-2998; experiment: NCI-60 SRB screen: colon cancer HCC-2998; format: cell-based, human; conditions: HCC-2998
[12] = system: HCT-116; experiment: NCI-60 SRB screen: colon cancer HCT-116; format: cell-based; conditions: Homo sapiens, 48 h, HCT-116
[13] = system: SW-620; experiment: NCI-60 SRB screen: colon cancer SW-620; format: cell-based; conditions: Homo sapiens, 48 h, SW-620
[14] = system: SNB-75; experiment: NCI-60 SRB screen: CNS cancer SNB-75; format: cell-based, human; conditions: SNB-75
[15] = system: U251; experiment: NCI-60 SRB screen: CNS cancer U251; format: cell-based; conditions: Homo sapiens, U251
[16] = system: MDA-MB-435; experiment: NCI-60 SRB screen: melanoma MDA-MB-435; format: cell-based, human; conditions: MDA-MB-435
[17] = system: SK-MEL-28; experiment: NCI-60 SRB screen: melanoma SK-MEL-28; format: cell-based, human; conditions: SK-MEL-28
[18] = system: SK-MEL-5; experiment: NCI-60 SRB screen: melanoma SK-MEL-5; format: cell-based, human; conditions: SK-MEL-5
[19] = system: OVCAR-3; experiment: NCI-60 SRB screen: ovarian cancer OVCAR-3; format: cell-based, human; conditions: OVCAR-3
[20] = system: OVCAR-4; experiment: NCI-60 SRB screen: ovarian cancer OVCAR-4; format: cell-based; conditions: Homo sapiens; OVCAR-4; five concentrations, 48 h, SRB; read-out: GI50
[21] = system: OVCAR-5; experiment: NCI-60 SRB screen: ovarian cancer OVCAR-5; format: cell-based, human; conditions: OVCAR-5
[22] = system: NCI/ADR-RES; experiment: NCI-60 SRB screen: ovarian cancer NCI/ADR-RES; format: cell-based, human
[23] = system: 786-0; experiment: NCI-60 SRB screen: renal cancer 786-0; format: cell-based, human; conditions: 786-0
[24] = system: A498; experiment: NCI-60 SRB screen: renal cancer A498; format: cell-based, human; conditions: A498
[25] = system: SN12C; experiment: NCI-60 SRB screen: renal cancer SN12C; format: cell-based, human
[26] = system: PC-3; experiment: NCI-60 SRB screen: prostate cancer PC-3; format: cell-based, human; conditions: PC-3
[27] = system: DU-145; experiment: NCI-60 SRB screen: prostate cancer DU-145; format: cell-based, human; conditions: DU-145
[28] = system: MDA-MB-231/ATCC; experiment: NCI-60 SRB screen: breast cancer MDA-MB-231/ATCC; format: cell-based; conditions: Homo sapiens, 48 h
[29] = system: T-47D; experiment: NCI-60 SRB screen: breast cancer T-47D; format: cell-based, human; conditions: T-47D
[30] = system: 60 human tumor cell lines; experiment: cells
[31] = system: Leukemia subpanel; experiment: NCI-60 screen, subpanel Leukemia
[32] = system: Melanoma subpanel; experiment: NCI-60 screen, subpanel Melanoma
[33] = system: Ovarian Cancer subpanel; experiment: NCI-60 screen, subpanel Ovarian Cancer
[34] = system: Prostate cancer subpanel; experiment: NCI-60 screen, subpanel Prostate cancer
[35] = single dose 10 µM, read-out: Percentage Cell Growth
[36] = five concentrations, SRB, read-out: GI50
[37] = Homo sapiens, five concentrations, 48 h, SRB, read-out: GI50

## C=C(C)[C@@H]1CC[C@]2(C(=O)NCCNCCNCCN)CC[C@]3(C)[C@H](CC[C@@H]4[C@@]5(C)CC[C@H](O)C(C)(C)[C@@H]5CC[C@]43C)[C@@H]12 [Compound 6]
[1]; [35]
  activity at 10 µM: 5.18%
[1]; [36]
  GI50: 4.55 µM
[2]; Homo sapiens, K562, five concentrations, 48 h, SRB, read-out: GI50
  GI50: 6.9 µM
[2]; single dose 10 µM
  Percentage Cell Growth: −15.78%
[3]; [35]
  activity at 10 µM: 1.18%
[3]; [36]
  GI50: 11.5 µM
[4]; [35]
  activity at 10 µM: -8.15%
[4]; [36]
  GI50: 2.81 µM
[5]; [37]
  GI50: 10.5 µM
[5]; single dose 10 µM
  Percentage Cell Growth: −11.36%
[6]; single dose 10 µM
  Percentage Cell Growth: −69.12%
[6]; [37]
  GI50: 16.5 µM
[7]; single dose 10 µM
  Percentage Cell Growth: −65.35%
[7]; [37]
  GI50: 4.61 µM
[8]; [37]
  GI50: 15.5 µM
[8]; single dose 10 µM
  Percentage Cell Growth: −23.56%
[9]; [37]
  GI50: 14.7 µM
[9]; single dose 10 µM
  Percentage Cell Growth: −51.70%
[10]; [37]
  GI50: 10.3 µM
[10]; single dose 10 µM
  Percentage Cell Growth: −57.83%
[11]; single dose 10 µM
  Percentage Cell Growth: −90.36%
[11]; [37]
  GI50: 14.1 µM
[12]; [35]
  activity at 10 µM: -26.5%
[12]; [36]
  GI50: 4.4 µM
[13]; [35]
  activity at 10 µM: -86.7%
[13]; [36]
  GI50: 14.7 µM
[14]; [37]
  GI50: 11.1 µM
[14]; single dose 10 µM
  Percentage Cell Growth: −79.32%
[15]; U-251, 48 h, single dose 10 µM, read-out: Percentage Cell Growth
  activity at 10 µM: -71.7%
[15]; U-251, five concentrations, 48 h, SRB, read-out: GI50
  GI50: 12.7 µM
[16]; [37]
  GI50: 13.4 µM
[16]; single dose 10 µM
  Percentage Cell Growth: −89.21%
[17]; [37]
  GI50: 16 µM
[17]; single dose 10 µM
  Percentage Cell Growth: −98.68%
[18]; [37]
  GI50: 11.1 µM
[18]; single dose 10 µM
  Percentage Cell Growth: −90.10%
[19]; [37]
  GI50: 12.2 µM
[19]; single dose 10 µM
  Percentage Cell Growth: −66.02%
[20]
  GI50: 14.1 µM
[21]; [37]
  GI50: 18.6 µM
[21]; single dose 10 µM
  Percentage Cell Growth: −83.37%
[22]; [37]
  GI50: 18.9 µM
[22]; single dose 10 µM
  Percentage Cell Growth: −13.05%
[23]; single dose 10 µM
  Percentage Cell Growth: −83.51%
[23]; [37]
  GI50: 12.4 µM
[24]; single dose 10 µM
  Percentage Cell Growth: −32.64%
[24]; [37]
  GI50: 19.6 µM
[25]; [37]
  GI50: 13.5 µM
[25]; single dose 10 µM
  Percentage Cell Growth: −53.68%
[26]; [37]
  GI50: 2.95 µM
[26]; single dose 10 µM
  Percentage Cell Growth: 1.07%
[27]; single dose 10 µM
  Percentage Cell Growth: −8.34%
[27]; [37]
  GI50: 14.1 µM
[28]; MDA-MB-231/ATCC, single dose 10 µM, read-out: Percentage Cell Growth
  activity at 10 µM: -56.9%
[28]; MDA-MB-231, MDA-MB-31/ATCC, five concentrations, SRB, read-out: GI50
  GI50: 15.1 µM
[29]; Homo sapiens, T47D, five concentrations, 48 h, SRB, read-out: GI50
  GI50: 10.9 µM
[29]; single dose 10 µM
  Percentage Cell Growth: −32.56%
[30]; read-out: GI50 ranges against all panels of NCI60
  GI50: 2.95 to 20.1 µM
[30]; read-out: MID a, average sensitivity of all cell line (GI50-MID)
  GI50: 12.2 µM
[31]
  MID b, average sensitivity of all cell line of particular subpanel: 6.64 µM
  Selectivity, ratio MID a: MID b: 1.83
[32]
  MID b, average sensitivity of all cell line of particular subpanel: 13.58 µM
  Selectivity, ratio MID a: MID b: 0.89
[33]
  MID b, average sensitivity of all cell line of particular subpanel: 14.10 µM
  Selectivity, ratio MID a: MID b: 0.86
[34]
  MID b, average sensitivity of all cell line of particular subpanel: 8.53 µM
  Selectivity, ratio MID a: MID b: 1.42
